“And” between values parts separate entries of the source, which are not always exact repeats. Equal entries are not always repeated. “Also recorded” adds a separate entry of the source. Where two headings read alike, the source gives them in different places. Where a SMILES comes first, the peptide text is derived from it. [ ]: non-standard residue; d: D form. The star is where a group is joined. X1 = CC(=O)O[C@@]12CO[C@@H]1C[C@H](O)[C@@]1(C)C(=O)[C@H](O)C3=C(C)[C@@H](OC(=O)[C@H](OC(=O)CCC(=O)*)[C@@H](NC(=O)OC(C)(C)C)c4ccccc4)C[C@@](O)([C@@H](OC(=O)c4ccccc4)[C@H]21)C3(C)C; Nle = CCCC[C@H](N)C(=O)O
What was measured:
[1] = tested on: MDA-MB-231 cells; experiment: Real-time cell migration, xCELLigence (MDA-MB-231); format: cell-based
Description: (§1) In vitro vasculogenic mimicry of cancer cells was assessed using a Matrigel tube formation assay. In brief, each well of a 96-well plate was pre-coated with Matrigel. ES-2 ovarian cancer or MDA-MB-231 TNBC cell suspensions were seeded on top of Matrigel. 3D-tubular structures were analyzed and quantified using Wimasis Analysis software. Real-time cell migration was evaluated using the ×CELLigence system. Sortilin gene silencing was performed with specific siRNA. Effects of Doxorubicin-KA-peptide conjugate (DoxKA) KBA-106 represented by formula Acetyl-GVRAK(doxorubicin)AGVRN(Nle)FK(doxorubicin)SESY (Formula (XXVIII)) and Docetaxel-KA-peptide conjugate (DoceKA) represented by formula Acetyl-GVRAK(docetaxel)AGVRN(Nle)FK(docetaxel)SESY (Formula (XXIII)) targeting Sortilin on vasculogenic mimicry and cell migration were determined.
(§2) MDA-MB-231 cells were used as a TNBC cell model for in vitro and in vivo xenograft (CD1 nude mice) assays. Cell migration was assessed using the ×CELLigence real-time system, whereas MTT assay was used for cell proliferation analysis. Apoptosis biomarkers expression was assessed by immunoblotting.

[2] = tested on: MDA-MB-231 xenograft tumor; experiment: MDA-MB-231 xenograft tumor model; format: in vivo, CD1 nude mice; conditions: murine MDA-MB-231 xenograft
Description: as §2

[3] = Blood cell / neutrophil counts after treatment; format: in vivo, nude mice
From the text: FIG. 27A illustrates the effect on lymphocytes after 3 treatments with different concentrations of Docetaxel or DoceKA. FIG. 27B illustrates the effect on platelets after 3 treatments with different concentrations of Docetaxel or DoceKA. FIG. 27C illustrates the effect on neutrophils after 3 treatments with different concentrations of Docetaxel or DoceKA. IP means intraperitoneal administration, while IV means intravenous delivery.
FIG. 28 depicts the preliminary toxicity data on DoceKA, specifically, the neutrophils count (g/L) after DoceKA treatments at different dosages of Docetaxel or DoceKA.

[4] = tested on: MDA-MB-231 cells; experiment: MTT cell proliferation assay; format: cell-based
Description: as §2

[5] = tested on: tubulin; experiment: Tubulin / microtubule polymerization; format: biochemical
Description: FIGS. 23A and 23B depict the DoceKA impact on tubulin polymerization. More particularly, FIG. 23A illustrates cells treated with vehicle (DMSO), 2 μM Docetaxel or 1 μM DoceKA for 24 hours, fixed and immunostained with anti-a-tubulin antibody and imaged using confocal microscopy. […] FIG. 23B illustrates that in a fluorescence-based polymerization assay, the effect of Docetaxel (2 μM) and DoceKA (1 μM) on polymerization of purified tubulin was examined in vitro. Paclitaxel (2 μM) and Vinblastine (2 μM) were added as controls for tubulin-polymerizing and tubulin-depolymerizing agents, respectively. Tubulin assembly into microtubules was determined by an increase in fluorescence emission (Ex. 340-360 nm±20 nm; Em. 410-460 nm±20 nm).

[6] = tested on: ES-2 ovarian cancer cells; experiment: In vitro vasculogenic mimicry, Matrigel tube formation assay (ES-2); format: cell-based, human
[7] = tested on: MDA-MB-231 TNBC cells; experiment: In vitro vasculogenic mimicry, Matrigel tube formation assay (MDA-MB-231); format: cell-based; conditions: MDA-MB231; FIG. 43
Description: as §1

[8] = tested on: IL-6, Survivin, Bcl-xL and mutant p53; experiment: Immunoblotting of pro-survival biomarkers; format: cell-based; conditions: MDA-MB-231
From the text: FIGS. 22A and 22B illustrate the molecular mechanism of cell death induction by DoceKA in MDA-MB-231 cells. FIG. 22A illustrates the immunoblotting experiment showing the expression level of IL-6, Survivin, Bcl-xi and mutated p53 in MDA-MB-231 cell after treatment with Docetaxel and DoceKA. GAPDH was used as a control. FIG. 22B data are representative of three independent experiments and the bar graphs show the densitometric quantification of IL-6, Survivin, Bcl-xL and p53 expression as compared to GAPDH. The mean value of the control group was set to be 1.0.
as §2

[9] = DoceKA pharmacokinetics in mice (plasma, UPLC/MS); format: in vivo, CD-1 mice; conditions: for half-life: iv, 50 mg/kg
Description: FIG. 29A illustrates the plasma concentration for DoceKA and released Docetaxel (BDL) at progressive time intervals. FIG. 29B illustrates the PK in CD-1 mice. […] Plasma was collected at different time points. DoceKA and released Docetaxel were extracted with acetonitrile. DoceKA and released Docetaxel, were quantified by UPLC/MS using Paclitaxel as the internal standard: 2 μl and 10 μl of supematants were injected for DoceKA and Docetaxel directly without lyophilization.
PK data on Docetaxel were obtained from refs. 50 and 51. PK analysis for DoceKA was carried out using PK solutions software. Docetaxel PK in mice is biphasic and linear between 13-62 mg/kg. […] Both have similar half-lives. DoceKA has a lower clearance (CL) and Volume of distribution (Vd). These preliminary data need to be confirmed with more data (shorter and longer time points).

[10] = tested on: MDA-MB-231 cells; experiment: Cell death / apoptosis (Annexin V-FITC/PI); format: cell-based
Description: MDA-MB-231 cells treated for 5 hours with control (vehicle) or with increasing concentrations of Docetaxel or DoceKA. Cells were then harvested and the rate of apoptosis was determined following staining with Annexin V-FITC and propidium iodide (PI). Cells were analyzed by flow cytometry.

[11] = tested on: ES-2 ovarian cancer cells; experiment: Real-time cell migration, xCELLigence (ES-2); format: cell-based, human
Description: as §1

[12] = tested on: MDA-MB-231 breast cancer cells; experiment: [3H]-Thymidine Incorporation assay; format: cell-based; conditions: Homo sapiens, GraphPad Prism
Description: FIG. 19 depicts the in vitro anticancer properties of DoceKA against MDA-MB-231 breast cancer cells as determined using the [3H]-Thymidine Incorporation assay. Incorporated [3H]-Thymidine was plotted for each drug concentration. IC50 values (nM) were calculated using the GraphPad Prism software. […] is a set of graphs depicting the cell-cycle distribution of MDA-MB231 cells determined based on cellular DNA content using flow cytometry after 24 hours of treatment with 2 μM Docetaxel or 1 μM DoceKA.

[13] = cited from earlier work
[14] = CD-1, mouse, plasma, DoceKA 50 mg/kg, intravenous, preliminary data

For CCCC[C@H](NC(=O)[C@H](CC(N)=O)NC(=O)[C@H](CCCNC(=N)N)NC(=O)[C@@H](NC(=O)CNC(=O)[C@H](C)NC(=O)[C@H](CCCCNC(=O)CCC(=O)O[C@@H](C(=O)O[C@H]1C[C@@]2(O)[C@@H](OC(=O)c3ccccc3)[C@@H]3[C@]4(OC(C)=O)CO[C@@H]4C[C@H](O)[C@@]3(C)C(=O)[C@H](O)C(=C1C)C2(C)C)[C@@H](NC(=O)OC(C)(C)C)c1ccccc1)NC(=O)[C@H](C)NC(=O)[C@H](CCCNC(=N)N)NC(=O)[C@@H](NC(=O)CNC(C)=O)C(C)C)C(C)C)C(=O)N[C@@H](Cc1ccccc1)C(=O)N[C@@H](CCCCNC(=O)CCC(=O)O[C@@H](C(=O)O[C@H]1C[C@@]2(O)[C@@H](OC(=O)c3ccccc3)[C@@H]3[C@]4(OC(C)=O)CO[C@@H]4C[C@H](O)[C@@]3(C)C(=O)[C@H](O)C(=C1C)C2(C)C)[C@@H](NC(=O)OC(C)(C)C)c1ccccc1)C(=O)N[C@@H](CO)C(=O)N[C@@H](CCC(=O)O)C(=O)N[C@@H](CO)C(=O)N[C@@H](Cc1ccc(O)cc1)C(=O)O [DoceKA, Acetyl-GVRAK(docetaxel)AGVRN(Nle)FK(docetaxel)SESY] (Ac-GVRAK(X1)AGVRN[Nle]FK(X1)SESY-OH), the cell migration [1] was “inhibited; also recorded: potent anti-proliferative and anti-migratory activities”, the “tumor regression and survival compared to Docetaxel” value [2] was “greater tumor regression capacity with a prolonged survival” and the neutrophils count ([3]; after six injections) was “remained within normal limits”. For the same molecule, the “effect on blood cells (lymphocytes, platelets, neutrophils)” value ([3]; nude mice, 3 treatments) was “absence of effect”, the cell proliferation [4] was “potent anti-proliferative and anti-migratory activities” and the microtubules polymerization [5] was “altered microtubules polymerization”. For the same molecule, the “concentration at which total number of loops and total tube length are inhibited” value ([6]; ES-2 on Matrigel) was “low pM concentration; also recorded: very low pM concentration; also recorded: inhibited at low nM concentrations”, the “vasculogenic mimicry inhibition compared to unconjugated drug” value ([6]; ES-2 on Matrigel, 12 hrs, equivalent concentration of free drug (Docetaxel 600 pM)) was “stronger inhibition of vasculogenic mimicry than unconjugated free drugs; also recorded: stronger inhibition of 3Dtubulare structures than Docetaxel alone” and the “IC50 values for vasculogenic mimicry inhibition” value ([6]; Example 2, ovarian cancer and TNBC cells) was “low nM to pM”. The “vasculogenic mimicry inhibition compared to Docetaxel alone” value [7] was “stronger inhibition of vasculogenic mimicry”, the “expression of pro-survival biomarkers” value [8] was “down-regulation of IL-6, Survivin, Bcl-xL and mutant p53” and the half-life ([9]; CD-1, mouse, plasma, DoceKA 50 mg/kg, intravenous, preliminary data, read-out: t½ adsorption distribution) was 6 to 20 min. For the same molecule, the half-life ([9]; CD-1, mouse, plasma, DoceKA 50 mg/kg, intravenous, preliminary data, read-out: t½ elimination) was 90 to 150 min, the AUC [9, 14] was 614 µM·h and 2.3e+06 ng·h/mL and the Cmax [9, 14] was 1.6e+06 ng/mL and 437 µM. For the same molecule, the Vd [9, 14] was 0.04 L/kg, the clearance [9, 14] was 0.3 mL/min/kg and the “plasma concentration of released Docetaxel” value ([9]; DoceKA 20 mg/kg intravenously, at 0.083, 0.25 and 4 hours) was “below the limit of quantification”. The “AUC (tissue exposure) of DoceKA compared to Docetaxel” value ([9]; higher for DoceKA) was “about 29 fold”, the “Cmax of DoceKA compared to Docetaxel” value ([9]; higher, compared to Docetaxel (20 mg/kg)) was “about 18 fold” and the “cell death induction compared to free Docetaxel” value [10] was “faster and higher cell death mechanisms”. For the same molecule, the cell migration [11] was “inhibited”.
In the case of CC(=O)O[C@@]12CO[C@@H]1C[C@H](O)[C@@]1(C)C(=O)[C@H](O)C3=C(C)[C@@H](OC(=O)[C@H](O)[C@@H](NC(=O)OC(C)(C)C)c4ccccc4)C[C@@](O)([C@@H](OC(=O)c4ccccc4)[C@H]21)C3(C)C [Docetaxel, docetaxel], the neutrophils count ([3]; four days after a single injection at the maximum tolerable dose) is listed as “drastic reduction in neutrophils count”, the IC50 [12] is listed as 0.68 nM and the CL ([13]; Docetaxel 10 mg/kg, mice) is listed as 35 mL/min/kg. For the same molecule, the Vd ([13]; Docetaxel 10 mg/kg, mice) was 2.2 to 5 L/kg, the t½ adsorption distribution ([13]; Docetaxel 10 mg/kg, mice) was 7 min and the t½ elimination ([13]; Docetaxel 10 mg/kg, mice) was 72 min. The “Reported Cmax” value ([13]; Docetaxel dosed at 20 mg/kg) was “about 20 μg/ml” and the Cmax ([13]; Docetaxel dosed at 20 mg/kg, read-out: Reported Cmax) was about 25 µM.
